This is an account of results in paper PMC6768109, “A novel assay for measuring recombinant human lysophosphatidylcholine acyltransferase 3 activity” (FEBS Open Bio, 2019).

By IC50 is commonly meant the concentration needed to halve the response being measured. By Km is commonly meant the concentration of substrate that gives half-maximal velocity.

Series [1] addresses T1, recombinant human lysophosphatidylcholine acyltransferase 3 (rhLPCAT3) (Homo sapiens, UniProt Q6P1A2).
T1 construct: gene LPCAT3; human LPCAT3 (BC065194.1) with HRV 3C site and C-terminal Twin-strep-tag, expressed in Sf9 cells, purified in DDM
T1 sequence (Q6P1A2 2-487): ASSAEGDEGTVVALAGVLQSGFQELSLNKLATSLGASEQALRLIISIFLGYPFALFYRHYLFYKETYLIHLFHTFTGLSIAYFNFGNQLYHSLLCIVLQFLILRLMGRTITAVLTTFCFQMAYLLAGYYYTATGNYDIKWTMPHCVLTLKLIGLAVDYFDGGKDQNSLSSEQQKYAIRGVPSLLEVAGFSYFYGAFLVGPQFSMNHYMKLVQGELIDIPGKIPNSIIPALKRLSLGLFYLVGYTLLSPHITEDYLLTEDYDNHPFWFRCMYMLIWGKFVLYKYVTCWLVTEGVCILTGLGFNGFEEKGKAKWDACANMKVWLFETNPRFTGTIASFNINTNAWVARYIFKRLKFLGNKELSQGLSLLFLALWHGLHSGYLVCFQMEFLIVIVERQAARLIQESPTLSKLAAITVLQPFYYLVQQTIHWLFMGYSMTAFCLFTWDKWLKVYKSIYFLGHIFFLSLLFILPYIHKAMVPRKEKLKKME
Nature of the series: reversed-phase HPLC fluorescence assay of NBD-PC formation by purified rhLPCAT3. The format is biochemical.

Substrate in series [2]: CCCCC/C=C\C/C=C\C/C=C\C/C=C\CCCC(=O)SCCNC(=O)CCNC(=O)[C@H](O)C(C)(C)COP(=O)(O)OP(=O)(O)OC[C@H]1O[C@@H](n2cnc3c(N)ncnc32)[C@H](O)[C@@H]1OP(=O)(O)O
Nature of the series: bisubstrate kinetics (Km) of purified enzyme, reversed-phase HPLC with fluorescence detection. In kind it is biochemical, Homo sapiens.

With `CCCOC(=O)c1ccc(N2C(=O)C(Cl)=C(Cl)C2=O)cc1` [TSI-10], the IC50 in series [1] was 174 ± 1.04 µM.

B1: recombinant human lysophosphatidylcholine acyltransferase 3 (rhLPCAT3) (Homo sapiens) (protein)
chain: T1 sequence (Q6P1A2 2-487)
notes: human LPCAT3 (BC065194.1) with HRV 3C site and C-terminal Twin-strep-tag, expressed in Sf9 cells, purified in DDM
Regarding B1, the Km in series [2] was 11.03 ± 0.51 µM.
